Reference: patent US20260042764A1, “COMPOSITIONS AND METHODS FOR INHIBITION OF KRAS” (TheRas, Inc., priority 2022, published 2026)

Columns and labels:
[1] = biological target: T1, Avi-KRAS G12D (1-169) GppNHp/RAF1 RBD-3xFLAG (52-151) (Homo sapiens, UniProt P01116, G12D); assay: Raf1-KRAS G12D-GppNHP disruption HTRF assay (Biological Example 1); type: binding; settings: KRAS G12D-GppNHp/RAF1 RBD HTRF
T1 construct: Avi-KRAS G12D (1-169)
In short: (§1)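 Using HTRF, the loss of KRAS–effector RAF1 complex was quantified in 50 mM Tris pH 7.5 buffer with 100 mM NaCl and 0.1% BSA. The protein step and reagent step ran 1 h each at room temperature. Activity normalized with DMSO taken as 100%.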

[2] = biological target: T2, Avi-KRAS G12R (1-169) GppNHp/RAF1 RBD-3xFLAG (52-151) (Homo sapiens, UniProt P01116, G12R); assay: Raf1-KRAS G12R-GppNHP disruption HTRF assay (Biological Example 1); type: binding; settings: KRAS G12R-GppNHp/RAF1 RBD HTRF
T2 construct: Avi-KRAS G12R (1-169)
In short: as §1

[3] = biological target: T3, Avi-KRAS G12V (1-169) GppNHp/RAF1 RBD-3xFLAG (52-151) (Homo sapiens, UniProt P01116, G12V); assay: Raf1-KRAS G12V-GppNHP disruption HTRF assay (Biological Example 1); type: binding; settings: KRAS G12V-GppNHp/RAF1 RBD HTRF
T3 construct: Avi-KRAS G12V (1-169)
In short: as §1

[4] = biological target: T4, Avi-KRAS WT (1-169) GppNHp/RAF1 RBD-3xFLAG (52-151) (Homo sapiens, UniProt P01116); assay: Raf1-KRAS WT-GppNHP disruption HTRF assay (Biological Example 1); type: binding; settings: KRAS WT-GppNHp/RAF1 RBD HTRF
T4 construct: Avi-KRAS WT (1-169)
In short: as §1

GP2d cells (KRAS G12D) = assay: Cell-based pERK HTRF assay in GP2d cell (Biological Example 2); settings: GP2d, GP2d (KRAS G12D) cells, pERK HTRF
In short: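 Phospho-ERK in lysed cells was detected by HTRF using Eu cryptate and d2 antibodies, read between 4 and 24 h at room temperature. Prior to lysis, KRAS G12D GP2d cells, seeded the day before in DMEM with 10% FBS, were exposed to compounds for 60 min. Compounds were tested as 9-point half-log curves from 1 μM or 100 nM top, with 0.25% DMSO.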

SW620 cells (KRAS G12V) = assay: Cell-based pERK HTRF assay in SW620 cell (Biological Example 4); settings: Homo sapiens, SW-620, SW620 (KRAS G12V) cells, pERK HTRF
In short: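 Read-out: HTRF pERK signal (excitation 320 nm, emission 615 nm) from lysates of SW620 cells after 4 h compound exposure. Dose range was 9 points, half-log steps from 1 μM, in 0.25% DMSO; antibody incubation ran 4–24 h at room temperature.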

T4 sequence (P01116 1-169 isoform P01116-2): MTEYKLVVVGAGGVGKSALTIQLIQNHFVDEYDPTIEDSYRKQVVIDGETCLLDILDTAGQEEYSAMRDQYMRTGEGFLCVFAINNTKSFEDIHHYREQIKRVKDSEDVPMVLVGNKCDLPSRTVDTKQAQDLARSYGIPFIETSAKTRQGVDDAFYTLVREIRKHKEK
T2 sequence (P01116 1-169 isoform P01116-2 G12R): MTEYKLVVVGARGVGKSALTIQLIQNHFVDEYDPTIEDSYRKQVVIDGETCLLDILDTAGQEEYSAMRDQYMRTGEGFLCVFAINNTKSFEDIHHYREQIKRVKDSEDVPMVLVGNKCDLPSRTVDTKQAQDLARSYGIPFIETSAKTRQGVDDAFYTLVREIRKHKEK
T1 sequence (P01116 1-169 isoform P01116-2 G12D): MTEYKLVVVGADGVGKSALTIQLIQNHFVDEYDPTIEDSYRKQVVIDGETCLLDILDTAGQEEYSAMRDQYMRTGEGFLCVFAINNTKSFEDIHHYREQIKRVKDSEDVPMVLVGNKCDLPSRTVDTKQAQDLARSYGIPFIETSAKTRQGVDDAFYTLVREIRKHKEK
T3 sequence (P01116 1-169 isoform P01116-2 G12V): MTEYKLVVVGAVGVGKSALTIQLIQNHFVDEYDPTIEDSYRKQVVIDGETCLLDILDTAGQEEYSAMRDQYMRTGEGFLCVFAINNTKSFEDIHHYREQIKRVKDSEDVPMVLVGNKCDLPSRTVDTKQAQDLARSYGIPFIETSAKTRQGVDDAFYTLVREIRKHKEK

| SMILES | IC50 [1] [nM] | IC50 [2] [nM] | IC50 [3] [nM] | IC50 [4] [nM] | IC50 (GP2d cells (KRAS G12D)) [nM] | IC50 (SW620 cells (KRAS G12V)) [nM] |
| --- | --- | --- | --- | --- | --- | --- |
| N#Cc1c(N)sc2c(F)ccc(-c3c(C(F)(F)F)cc4c(N5CCC[C@H](CO)C5)nc(OC[C@@]56CCCN5C[C@H](F)C6)nc4c3F)c12 [Compound 310] | 100 to 1000 | 100 to 1000 | 1000 to 10000 | 100 to 1000 | < 100 | 100 to 1000 |
| CN1CCN(c2nc(OC[C@@]34CCCN3C[C@H](F)C4)nc3c(F)c(-c4ccc(F)c5sc(N)c(C#N)c45)c(C(F)(F)F)cc23)CCS1(=O)=O [Compound 311] | > 10000 | > 10000 | > 10000 | > 10000 | > 1000 | > 1000 |
| C[C@@H]1[C@H](N(C)c2nc(OC[C@@]34CCCN3C[C@H](F)C4)nc3c(F)c(-c4ccc(F)c5sc(N)c(C#N)c45)c(C(F)(F)F)cc23)CCN1C(=O)C(C)(C)C [Compound 312] | 100 to 1000 | 100 to 1000 | 100 to 1000 | 100 to 1000 | < 100 | < 100 |
| C[C@@H]1[C@H](N(C)c2nc(OC[C@@]34CCCN3C[C@H](F)C4)nc3c(F)c(-c4ccc(F)c5sc(N)c(C#N)c45)c(C(F)(F)F)cc23)CCN1C(=O)C1(C)CC1 [Compound 313] | 100 to 1000 | 100 to 1000 | 100 to 1000 | 100 to 1000 | < 100 | < 100 |
| C[C@@H]1CC[C@@H](O)CN1c1nc(OC[C@@]23CCCN2C[C@H](F)C3)nc2c(F)c(-c3ccc(F)c4sc(N)c(C#N)c34)c(C(F)(F)F)cc12 [Compound 314] | 100 to 1000 | 100 to 1000 | 100 to 1000 | 100 to 1000 | < 100 | < 100 |
| CN(c1nc(OC[C@@]23CCCN2C[C@H](F)C3)nc2c(F)c(-c3ccc(F)c4sc(N)c(C#N)c34)c(C(F)(F)F)cc12)[C@@H]1CC[C@H](O)C1 [Compound 315] | 100 to 1000 | 1000 to 10000 | 1000 to 10000 | 100 to 1000 | < 100 | < 100 |
| N#Cc1c(N)sc2c(F)ccc(-c3c(C(F)(F)F)cc4c(N5CCC[C@@H](CO)C5)nc(OC[C@@]56CCCN5C[C@H](F)C6)nc4c3F)c12 [Compound 316] | 100 to 1000 | 100 to 1000 | 1000 to 10000 | 100 to 1000 | < 100 | < 100 |
| C[C@H]1CC[C@@H](O)CN1c1nc(OC[C@@]23CCCN2C[C@H](F)C3)nc2c(F)c(-c3ccc(F)c4sc(N)c(C#N)c34)c(C(F)(F)F)cc12 [Compound 317] | 100 to 1000 | 100 to 1000 | 1000 to 10000 | 100 to 1000 | < 100 | < 100 |
| Cc1nc(OC[C@@]23CCCN2C[C@H](F)C3)nc2c(F)c(-c3ccc(F)c4sc(N)c(C#N)c34)c(C(F)(F)F)cc12 [Compound 318, 2-amino-7-fluoro-4-[8-fluoro-2-[[(2R,8S)-2-fluoro-1,2,3,5,6,7-hexahydropyrrolizin-8-yl]methoxy]-4-methyl-6-(trifluoromethyl)quinazolin-7-yl]benzothiophene-3-carbonitrile] | 100 to 1000 | 100 to 1000 | 1000 to 10000 | 1000 to 10000 | < 100 | 100 to 1000 |
| N#Cc1c(N)sc2c(F)ccc(-c3c(C(F)(F)F)cc4c(N5C[C@@H]6C[C@H]5CS6(=O)=O)nc(OC[C@@]56CCCN5C[C@H](F)C6)nc4c3F)c12 [Compound 319] | 100 to 1000 | 1000 to 10000 | 1000 to 10000 | 1000 to 10000 | 100 to 1000 | 100 to 1000 |
| N#Cc1c(N)sc2c(F)ccc(-c3c(C(F)(F)F)cc4c(N5C6CCC5CS(=O)(=O)C6)nc(OC[C@@]56CCCN5C[C@H](F)C6)nc4c3F)c12 [Compound 320] | 100 to 1000 | 1000 to 10000 | 1000 to 10000 | 100 to 1000 | < 100 | < 100 |
| CC(=O)N1C[C@H](N(C)c2nc(OC[C@@]34CCCN3C[C@H](F)C4)nc3c(F)c(-c4ccc(F)c5sc(N)c(C#N)c45)c(C(F)(F)F)cc23)C[C@H]1C [Compound 321] | 100 to 1000 | 100 to 1000 | 100 to 1000 | 100 to 1000 | < 100 | < 100 |
| N#Cc1c(N)sc2c(F)ccc(-c3c(C(F)(F)F)cc4c(N5C[C@H]6C[C@@H]5CS6(=O)=O)nc(OC[C@@]56CCCN5C[C@H](F)C6)nc4c3F)c12 [Compound 322] | 100 to 1000 | 100 to 1000 | 1000 to 10000 | 100 to 1000 | < 100 | 100 to 1000 |
| CCC(=O)N1CC[C@@H](N(CC)c2nc(OC[C@@]34CCCN3C[C@H](F)C4)nc3c(F)c(-c4ccc(F)c5sc(N)c(C#N)c45)c(Cl)cc23)[C@H]1C [Compound 324] | 100 to 1000 | 100 to 1000 | 100 to 1000 | 100 to 1000 | < 100 | < 100 |
| C[C@@H]1[C@H](N(C)c2nc(OC[C@@]34CCCN3C[C@H](F)C4)nc3c(F)c(-c4ccc(F)c5sc(N)c(C#N)c45)c(C(F)(F)F)cc23)CCN1C(=O)C1(C#N)CC1 [Compound 325] | 100 to 1000 | 100 to 1000 | 100 to 1000 | 100 to 1000 | < 100 | < 100 |
| CC(=O)N1CC[C@@H](N(C)c2nc(OC[C@@]34CCCN3C[C@H](F)C4)nc3c(F)c(-c4ccc(F)c5oc(N)c(C#N)c45)c(C(F)(F)F)cc23)[C@H]1C [Compound 326] | 100 to 1000 | 100 to 1000 | 1000 to 10000 | 100 to 1000 | < 100 | 100 to 1000 |
| CN(c1nc(OC[C@@]23CCCN2C[C@H](F)C3)nc2c(F)c(-c3ccc(F)c4sc(N)c(C#N)c34)c(C(F)(F)F)cc12)C1CCS(=O)(=O)CC1 [Compound 330] | 100 to 1000 | 1000 to 10000 | 1000 to 10000 | 100 to 1000 | < 100 | 100 to 1000 |
| CN1C[C@@H](N(C)c2nc(OC[C@@]34CCCN3C[C@H](F)C4)nc3c(F)c(-c4ccc(F)c5sc(N)c(C#N)c45)c(C(F)(F)F)cc23)CC1=O [Compound 338] | 100 to 1000 | 100 to 1000 | 100 to 1000 | 100 to 1000 | < 100 | < 100 |
| CN(c1nc(OC[C@@]23CCCN2C[C@H](F)C3)nc2c(F)c(-c3ccc(F)c4sc(N)c(C#N)c34)c(C(F)(F)F)cc12)[C@@H]1CNC(=O)C1 [Compound 340] | 100 to 1000 | 100 to 1000 | 100 to 1000 | 100 to 1000 | < 100 | 100 to 1000 |
| CN(c1nc(OC[C@@]23CCCN2C[C@H](F)C3)nc2c(F)c(-c3ccc(F)c4sc(N)c(C#N)c34)c(C(F)(F)F)cc12)C1CCCS(=O)(=O)C1 (stereo partly drawn) [Compound 341] | 100 to 1000 | 100 to 1000 | 1000 to 10000 | 100 to 1000 | < 100 | 100 to 1000 |
